Measured values reported in patent publication US12448368B2, “Indole compounds as androgen receptor modulators” (NIDO BIOSCIENCES, INC., priority 2020, dated 2025).

The molecules below were run against T1, androgen receptor (AR) (Homo sapiens, UniProt P10275, T878A) (assay: AR reporter assay in LNCaP cells expressing ARR2PB-FireflyLuc and CMV-RenillaLuc, antagonist mode (% remaining activity, IC50)). Details: 48 h at 37° C., class symbols A-D, read-out: IC50.
T1 construct: LNCaP cells expressing ARR2PB-FireflyLuc and CMV-RenillaLuc; endogenous in cells; host or cells: LNCaP cells carrying ARR2PB-FireflyLuc and CMV-RenillaLuc reporters
T1 sequence (P10275 1-920 T878A): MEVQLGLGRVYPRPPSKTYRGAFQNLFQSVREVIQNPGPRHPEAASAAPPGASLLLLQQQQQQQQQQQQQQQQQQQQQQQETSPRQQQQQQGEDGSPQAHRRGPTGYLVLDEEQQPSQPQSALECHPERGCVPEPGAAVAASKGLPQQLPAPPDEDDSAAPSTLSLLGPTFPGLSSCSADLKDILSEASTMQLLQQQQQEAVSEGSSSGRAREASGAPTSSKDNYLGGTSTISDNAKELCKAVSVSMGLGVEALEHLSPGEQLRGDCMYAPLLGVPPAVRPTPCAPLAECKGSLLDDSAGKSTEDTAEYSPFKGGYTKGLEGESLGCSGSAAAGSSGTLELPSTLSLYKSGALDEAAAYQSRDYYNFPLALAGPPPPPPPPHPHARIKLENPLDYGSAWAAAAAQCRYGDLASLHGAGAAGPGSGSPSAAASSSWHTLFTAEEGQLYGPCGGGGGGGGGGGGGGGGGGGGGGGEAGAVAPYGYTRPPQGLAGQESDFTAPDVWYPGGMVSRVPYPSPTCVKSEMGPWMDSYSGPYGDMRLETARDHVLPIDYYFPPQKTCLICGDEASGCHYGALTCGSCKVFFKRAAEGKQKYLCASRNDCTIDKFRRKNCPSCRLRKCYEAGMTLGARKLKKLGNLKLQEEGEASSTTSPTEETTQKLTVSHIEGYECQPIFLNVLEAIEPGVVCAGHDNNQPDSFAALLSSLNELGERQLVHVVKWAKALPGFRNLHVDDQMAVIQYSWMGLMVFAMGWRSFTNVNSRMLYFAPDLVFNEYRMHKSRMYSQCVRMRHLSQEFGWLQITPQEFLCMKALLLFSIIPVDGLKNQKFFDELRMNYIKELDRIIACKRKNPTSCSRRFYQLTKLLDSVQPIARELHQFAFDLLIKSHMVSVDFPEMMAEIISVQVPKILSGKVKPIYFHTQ
Format: cell-based
Method: LNCaP cells expressing ARR2PB-FireflyLuc and CMV-RenillaLuc were treated with indicated concentrations of test compounds, enzalutamide (negative control), or DHT (positive control)+/−0.5 nM DHT for 48 h at 37° C. […] Remaining activity (antagonist mode) was calculated as % Remaining Activity=100×[(Readsample−LCave)/(HCave−LCave)] where HC is cells treated with 0.5 nM DHT only and LC is cells treated with 10 uM enzalutamide+0.5 nM DHT. Activation (agonist mode) was calculated as % Activation=100×[(ReadSample−LCave)/(HCave−LCave)] where HC is cells treated with 1 uM DHT and LC is cells treated with DMSO. Dose response curves and IC50 values were calculated using non-linear regression analysis in XLfit.
The designation “A” indicates an IC50 value of >10 μM, “B” indicates an IC50 value between 1 μM and 10 μM; “C” indicates an IC50 value between 100 nM and 1 μM; and “D” indicates an IC50 value of less than 100 nM.

CC1CCNc2ccc(-c3n[nH]c4cc(F)c(F)cc34)nc21 (single isomer, unassigned) [Compound 47] and Fc1cc2[nH]nc(-c3ccc4c(n3)CCCN4)c2cc1F [Compound 11] fall in the same range of IC50: 100 to 1000 nM for the first, 100 to 1000 nM for the second.

Going from CC1CCNc2ccc(-c3n[nH]c4cc(F)c(F)cc34)nc21 (single isomer, unassigned) [Compound 48] to Fc1cc2[nH]nc(-c3ccc4c(n3)CCNC4)c2cc1F [Compound 30], the IC50 rises from under 100 nM to over 10000 nM.

First: c1ccc2nc(-c3n[nH]c4ccc(N5CCOCC5)cc34)ccc2c1 [Compound 1]
Second: c1ccc2nc(-c3n[nH]c4cc(N5CCOCC5)ccc34)ccc2c1 [Compound 2]
The IC50 of the first is lower: 1000 to 10000 nM for the first, over 10000 nM for the second. The first is the more potent here.

CN(C)c1ccc2[nH]nc(-c3ccc4ccccc4n3)c2c1 [Compound 3] and CN(C)c1ccc2c(-c3ccc4ccccc4n3)n[nH]c2c1 [Compound 4] cannot be ordered by IC50: over 10000 nM for the first, over 10000 nM for the second.

First: c1cnc2ccc(-c3n[nH]c4ccccc34)nc2c1 [Compound 5]
Second: c1ccc2c(-c3ccc4cnccc4n3)n[nH]c2c1 [Compound 7]
The IC50 of the first is lower: under 100 nM for the first, 100 to 1000 nM for the second.

O=c1ccc2nc(-c3n[nH]c4ccccc34)ccc2[nH]1 [Compound 6] and Cn1c(=O)ccc2nc(-c3n[nH]c4ccccc34)ccc21 [Compound 17] fall in the same range of IC50: 1000 to 10000 nM for the first, 1000 to 10000 nM for the second.

c1ccc2c(-c3ccc4ccncc4n3)n[nH]c2c1 [Compound 8] and Cc1nccc2nc(-c3n[nH]c4ccccc34)ccc12 [Compound 19] cannot be ordered by IC50: under 100 nM for the first, under 100 nM for the second.

First: c1ccc2c(-c3ccc4c(n3)CCCN4)n[nH]c2c1 [Compound 9]
Second: c1ccc2c(-c3ccc4c(n3)CNCC4)n[nH]c2c1 [Compound 20]
The IC50 of the first is lower: 100 to 1000 nM for the first, over 10000 nM for the second.

First: CN1CCOc2nc(-c3n[nH]c4ccccc34)ccc21 [Compound 10]
Second: CN1CCOc2nc(-c3n[nH]c4cc(F)c(F)cc34)ccc21 [Compound 13]
The IC50 of the first is higher: over 10000 nM for the first, 1000 to 10000 nM for the second.

Going from COc1nccc2nc(-c3n[nH]c4ccccc34)ccc12 [Compound 12] to COc1ccc2nc(-c3n[nH]c4ccccc34)ccc2n1 [Compound 16], the IC50 rises from under 100 nM to over 10000 nM.

First: Fc1cc2[nH]nc(-c3cc4ccccc4nn3)c2cc1F [Compound 14]
Second: Fc1cc2[nH]nc(-c3ccc4ncccc4n3)c2cc1F [Compound 26]
The IC50 of the first is higher: over 10000 nM for the first, under 100 nM for the second. The second is the more potent here.

Compared with Cn1ccc2nc(-c3n[nH]c4ccccc34)ccc2c1=O [Compound 18], Cn1ccc2nc(-c3n[nH]c4cc(F)c(F)cc34)ccc2c1=O [Compound 29] is higher in IC50: 1000 to 10000 nM for the first, over 10000 nM for the second.

CC(=O)N1CCc2ccc(-c3n[nH]c4ccccc34)nc2C1 [Compound 21] and CC(=O)NC1CCCc2nc(-c3n[nH]c4ccccc34)ccc21 (centres unmarked) [Compound 23] cannot be ordered by IC50: over 10000 nM for the first, over 10000 nM for the second.

First: NC1CCCc2nc(-c3n[nH]c4ccccc34)ccc21 (centres unmarked) [Compound 22]
Second: CN1CCCc2nc(-c3n[nH]c4cc(F)c(F)cc34)ccc21 [Compound 24]
The IC50 of the first is higher: over 10000 nM for the first, 1000 to 10000 nM for the second.

First: CC(=O)N1CCCc2nc(-c3n[nH]c4cc(F)c(F)cc34)ccc21 [Compound 25]
Second: O=C(CO)N1CCCc2nc(-c3n[nH]c4cc(F)c(F)cc34)ccc21 [Compound 36]
The IC50 of the first is lower: 100 to 1000 nM for the first, 1000 to 10000 nM for the second. The first is the more potent here.

First: Fc1cc2[nH]nc(-c3ccnc4cccnc34)c2cc1F [Compound 27]
Second: Fc1cc2[nH]nc(-c3ccc4c(-c5nnco5)cccc4n3)c2cc1F [Compound 35]
The IC50 of the first is higher: 1000 to 10000 nM for the first, under 100 nM for the second. The second is the more potent here.

O=c1[nH]ccc2nc(-c3n[nH]c4cc(F)c(F)cc34)ccc12 [Compound 28] and Fc1cc2[nH]nc(-c3ccc4c(-c5nnco5)c(F)ccc4n3)c2cc1F [Compound 33] fall in the same range of IC50: 100 to 1000 nM for the first, 100 to 1000 nM for the second.

CC(=O)N1CCc2nc(-c3n[nH]c4cc(F)c(F)cc34)ccc2C1 [Compound 31] and Fc1cc2[nH]nc(-c3ccc4c(n3)CNCC4)c2cc1F [Compound 32] cannot be ordered by IC50: over 10000 nM for the first, over 10000 nM for the second.

Fc1cc2[nH]nc(-c3ccc4cc(F)c(-c5nnco5)cc4n3)c2cc1F [Compound 34] and COCC(=O)N1CCCc2nc(-c3n[nH]c4cc(F)c(F)cc34)ccc21 [Compound 37] cannot be ordered by IC50: over 10000 nM for the first, over 10000 nM for the second.
